The record followed here is US7473669B2, “Substituted 4,5-dihydro-1,2,4-triazin-6-ones, 1,2,4-triazin-6-ones, and their use as fungicides” (priority 2005, dated 2009).

Holding throughout (assay type): in vivo
Assay [1] has as its system Erysiphe cichoracaerum. Briefly: Cucumber Powdery Mildew greenhouse one-day protectant test. The settings on record: 24 h, read-out: ERYSCI percent control rating.
Assay [2] concerns Pyricularia oryzae. The experiment in a line: whole plant or invertebrate. The settings on record: 24 h, read-out: PYRIOR percent control rating.
The subject of assay [3] is Phytophthora infestans. Briefly: whole plant or invertebrate. Particulars: in Solanum lycopersicum, 24 h.
The test system of assay [4] is Leptosphaeria nodorum. Briefly: Glume Blotch of Wheat greenhouse one-day protectant test. The settings on record: Parastagonospora nodorum, 24 h, read-out: LEPTNO percent control rating.
Assay [5] concerns Puccinia recondita tritici. The experiment in a line: Leaf Rust of Wheat greenhouse one-day protectant test. The settings on record: 24 h, read-out: PUCCRT percent control rating.
For assay [6], the system named is Colletotricum lagenarium. The experiment in a line: Cucumber Anthracnose greenhouse one-day protectant test. Particulars: Cucumis sativus, 24 h, read-out: COLLLA percent control rating.
[7] abbreviates: cucumber plants, one-day protectant test, 200 ppm application rate.
The mark [8] stands for this setting: read-out: PHYTIN percent control rating, tomato plants, one-day protectant test, 200 ppm application rate.
[9] abbreviates: wheat plants, one-day protectant test, 200 ppm application rate.

SMILES strings stand for the structures. Like-named read-outs stand apart in the source and are kept apart here.

Regarding `O=C1CNC(c2cc(Cl)cc(Cl)c2)=NN1C(=O)C(F)(F)F` [Compound 11], the pest or weed control at 200 ppm was in the range of 0 to 49% in assay [1] (setting [7]); 50 to 79% in assay [2]; 0 to 49% in assay [3] (setting [8]); 50 to 79% in assay [4] (setting [9]); 0 to 49% in assay [5] (setting [9]); 50 to 79% in assay [6] (setting [7]).
With `CC(=O)OCN1N=C(c2ccc(Cl)c(Cl)c2)NCC1=O` [Compound 14], the pest or weed control at 200 ppm in assay [1] (setting [7]) was 0 to 49%; in assay [2], 0 to 49%; in assay [3] (setting [8]) it was 0 to 49%; in assay [4] (setting [9]), 0 to 49%; in assay [5] (setting [9]), 50 to 79%; in assay [6] (setting [7]), 0 to 49%.
With `O=C1CNC(c2cc(Cl)cc(Cl)c2)=NN1CN1CCOCC1` [Compound 15], the pest or weed control at 200 ppm fell in the range of 0 to 49% in assay [1] (setting [7]); 80 to 100% in assay [2]; 0 to 49% in assay [3] (setting [8]); 50 to 79% in assay [4] (setting [9]); 0 to 49% in assay [5] (setting [9]); 0 to 49% in assay [6] (setting [7]).
For the compound `CCCCN1N=C(c2ccc(Oc3cccnc3)cc2)NCC1=O` [Compound 16], the pest or weed control at 200 ppm in assay [1] (setting [7]) is 0 to 49%; in assay [2], 0 to 49%; in assay [3] (setting [8]) it was 0 to 49%; in assay [4] (setting [9]), 0 to 49%; in assay [5] (setting [9]), 80 to 100%; in assay [6] (setting [7]) it was 0 to 49%.
In the case of `O=C1CNC(c2cccc(OCc3ccccc3)c2)=NN1CC(F)(F)F` [Compound 17], the pest or weed control at 200 ppm was in the range of 0 to 49% in assay [1] (setting [7]); 80 to 100% in assay [2]; 0 to 49% in assay [3] (setting [8]); 80 to 100% in assay [4] (setting [9]); 80 to 100% in assay [5] (setting [9]); 80 to 100% in assay [6] (setting [7]).
As for `N#CCCN1N=C(c2cccc(OCc3ccccc3)c2)NCC1=O` [Compound 18], the pest or weed control at 200 ppm in assay [1] (setting [7]) was in the range of 0 to 49%; in assay [2] it was 50 to 79%; in assay [3] (setting [8]), 0 to 49%; in assay [4] (setting [9]), 50 to 79%; in assay [5] (setting [9]), 80 to 100%; in assay [6] (setting [7]), 50 to 79%.
`O=C1CNC(c2cccc(OCc3ccccc3)c2)=NN1CCF` [Compound 19]: the pest or weed control at 200 ppm in assay [1] (setting [7]) fell in the range of 0 to 49%; in assay [2] it was 50 to 79%; in assay [3] (setting [8]), 0 to 49%; in assay [4] (setting [9]) it was 50 to 79%; in assay [5] (setting [9]), 80 to 100%; in assay [6] (setting [7]), 0 to 49%.
For `O=C1CNC(c2cccc(OCc3ccccc3)c2)=NN1Cc1ccccc1` [Compound 20], the pest or weed control at 200 ppm was in the range of 0 to 49% in assay [1] (setting [7]); 80 to 100% in assay [2]; 0 to 49% in assay [3] (setting [8]); 50 to 79% in assay [4] (setting [9]); 80 to 100% in assay [5] (setting [9]); 0 to 49% in assay [6] (setting [7]).
As for `O=C1CNC(c2cccc(OCc3ccccc3)c2)=NN1c1cccc(Br)c1` [Compound 21], the pest or weed control at 200 ppm in assay [1] (setting [7]) is 0 to 49%; in assay [2], 80 to 100%; in assay [3] (setting [8]), 0 to 49%; in assay [4] (setting [9]), 50 to 79%; in assay [5] (setting [9]), 50 to 79%; in assay [6] (setting [7]), 0 to 49%.
As for `O=C1CNC(c2cccc(O)c2)=NN1CC(F)(F)F` [Compound 22], the pest or weed control at 200 ppm in assay [1] (setting [7]) is 0 to 49%; in assay [2], 0 to 49%; in assay [3] (setting [8]), 0 to 49%; in assay [4] (setting [9]), 0 to 49%; in assay [5] (setting [9]), 50 to 79%; in assay [6] (setting [7]) it was 0 to 49%.
For the compound `O=C1CNC(c2cccc(OS(=O)(=O)C(F)(F)F)c2)=NN1CC(F)(F)F` [Compound 23], the pest or weed control at 200 ppm in assay [1] (setting [7]) was in the range of 0 to 49%; in assay [2] it was 80 to 100%; in assay [3] (setting [8]), 0 to 49%; in assay [4] (setting [9]) it was 50 to 79%; in assay [5] (setting [9]) it was 50 to 79%; in assay [6] (setting [7]) it was 0 to 49%.
Regarding `O=C1CNC(c2cccc(Oc3cc(C(F)(F)F)cc(C(F)(F)F)n3)c2)=NN1CC(F)(F)F` [Compound 24], the pest or weed control at 200 ppm in assay [1] (setting [7]) was 0 to 49%; in assay [2] it was 0 to 49%; in assay [3] (setting [8]), 0 to 49%; in assay [4] (setting [9]), 80 to 100%; in assay [5] (setting [9]), 80 to 100%; in assay [6] (setting [7]) it was 0 to 49%.
Regarding `O=C(Nc1c(Cl)cccc1Cl)Oc1cccc(C2=NN(CC(F)(F)F)C(=O)CN2)c1` [Compound 25], the pest or weed control at 200 ppm in assay [1], in assay [2], in assay [3] (read-out: PHYTIN percent control rating), in assay [4], in assay [5] and in assay [6] was 0 to 49% in each case.
Take `O=C1CNC(c2cc(C=Cc3ccccc3)cc(-c3ccsc3)c2)=NN1CC(F)(F)F` [Compound 26]: the pest or weed control at 200 ppm in assay [1] (setting [7]) lay in the range of 0 to 49%; in assay [2] it was 0 to 49%; in assay [3] (setting [8]) it was 0 to 49%; in assay [4] (setting [9]), 50 to 79%; in assay [5] (setting [9]) it was 0 to 49%; in assay [6] (setting [7]), 0 to 49%.
Turning to `O=C1CNC(c2cccc(Oc3nc4ccc(Cl)cc4s3)c2)=NN1CC(F)(F)F` [Compound 27], the pest or weed control at 200 ppm lay within 0 to 49% in assay [1] (setting [7]); 80 to 100% in assay [2]; 0 to 49% in assay [3] (setting [8]); 80 to 100% in assay [4] (setting [9]); 80 to 100% in assay [5] (setting [9]); 50 to 79% in assay [6] (setting [7]).
In the case of `O=C1CNC(c2cccc(Oc3nnnn3-c3ccccc3)c2)=NN1CC(F)(F)F` [Compound 28], the pest or weed control at 200 ppm in assay [1] (setting [7]) lay in the range of 0 to 49%; in assay [2], 50 to 79%; in assay [3] (setting [8]) it was 0 to 49%; in assay [4] (setting [9]) it was 50 to 79%; in assay [5] (setting [9]), 0 to 49%; in assay [6] (setting [7]), 0 to 49%.
In the case of `O=C1CNC(c2cccc(-c3ccc(Cl)s3)c2)=NN1CC(F)(F)F` [Compound 29], the pest or weed control at 200 ppm in assay [1] (setting [7]) was 0 to 49%; in assay [2] it was 50 to 79%; in assay [3] (setting [8]) it was 0 to 49%; in assay [4] (setting [9]) it was 80 to 100%; in assay [5] (setting [9]) it was 80 to 100%; in assay [6] (setting [7]), 0 to 49%.
For the compound `O=C1CNC(c2cccc(-c3ccc(Oc4ccccc4)cc3)c2)=NN1CC(F)(F)F` [Compound 30], the pest or weed control at 200 ppm lay within 0 to 49% in assay [1] (setting [7]); 0 to 49% in assay [2]; 0 to 49% in assay [3] (setting [8]); 50 to 79% in assay [4] (setting [9]); 50 to 79% in assay [5] (setting [9]); 0 to 49% in assay [6] (setting [7]).
Consider `O=C1CNC(c2cccc(Oc3ncccn3)c2)=NN1CC(F)(F)F` [Compound 31], for which the pest or weed control at 200 ppm in assay [1] (setting [7]) lay within 0 to 49%; in assay [2], 0 to 49%; in assay [3] (setting [8]), 0 to 49%; in assay [4] (setting [9]), 50 to 79%; in assay [5] (setting [9]), 0 to 49%; in assay [6] (setting [7]) it was 0 to 49%.
`CNc1cc(F)nc(Oc2cccc(C3=NN(CC(F)(F)F)C(=O)CN3)c2)n1` [Compound 32]: the pest or weed control at 200 ppm lay in the range of 0 to 49% in assay [1] (setting [7]); 0 to 49% in assay [2]; 0 to 49% in assay [3] (setting [8]); 80 to 100% in assay [4] (setting [9]); 50 to 79% in assay [5] (setting [9]); 0 to 49% in assay [6] (setting [7]).
In the case of `O=C1CNC(c2cccc(Oc3ccnc(Cl)c3)c2)=NN1CC(F)(F)F` [Compound 33], the pest or weed control at 200 ppm in assay [1] (setting [7]) lay within 0 to 49%; in assay [2], 0 to 49%; in assay [3] (setting [8]) it was 0 to 49%; in assay [4] (setting [9]), 50 to 79%; in assay [5] (setting [9]), 80 to 100%; in assay [6] (setting [7]) it was 0 to 49%.
Turning to `O=C1CNC(c2ccc(-c3cc(Cl)cc(Cl)c3)nc2)=NN1CCF` [Compound 34], the pest or weed control at 200 ppm in assay [1] (setting [7]) fell in the range of 0 to 49%; in assay [2], 80 to 100%; in assay [3] (setting [8]) it was 50 to 79%; in assay [4] (setting [9]) it was 80 to 100%; in assay [5] (setting [9]), 80 to 100%; in assay [6] (setting [7]), 50 to 79%.
Consider `O=C1CNC(c2ccc(-c3ccc(C(F)(F)F)cc3)nc2)=NN1CCF` [Compound 35], for which the pest or weed control at 200 ppm in assay [1] (setting [7]) was in the range of 0 to 49%; in assay [2], 80 to 100%; in assay [3] (setting [8]), 50 to 79%; in assay [4] (setting [9]), 80 to 100%; in assay [5] (setting [9]) it was 80 to 100%; in assay [6] (setting [7]) it was 50 to 79%.
For the compound `Cc1cc(C)cc(C2=NN(CC(F)(F)F)C(=O)C(SCc3ccccc3)N2)c1` (stereo not drawn) [Compound 36], the pest or weed control at 200 ppm lay within 0 to 49% in assay [1] (setting [7]); 80 to 100% in assay [2]; 0 to 49% in assay [3] (setting [8]); 80 to 100% in assay [4] (setting [9]); 80 to 100% in assay [5] (setting [9]); 80 to 100% in assay [6] (setting [7]).
